In US10155769B2, “Fused azaheterocyclic compounds and their use as AMPA receptor modulators” (Janssen Pharmaceutica NV, priority 2016, dated 2018):

molecular target: GluA1o-γ8 (Homo sapiens (Human), UniProt P42261+Q8WXS5); experiment: Calcium flux assay (FLIPR), inhibition of TARP γ8 dependent AMPA receptor activity; format: cell-based; settings: HEK293 cells stably expressing GRIA1o-CACNG8 fusion construct; calcium flux following 15 μM glutamate; negative log of IC50 in molar
Description: This assay was used to test compounds for their ability to inhibit TARP γ8 dependent AMPA receptor activity. The AMPA receptor is a non-selective cation channel activated by glutamate. Ionotropic glutamate receptors normally desensitize too rapidly to allow detectable calcium influx in a FLIPR assay (Strange et al. (2006). “Functional characterisation of homomeric ionotropic glutamate receptors GluR1-GluR6 in a fluorescence-based high throughput screening assay.” Comb Chem High Throughput Screen 9(2): 147-158). But, this desensitization is incomplete, and a substantial steady-state current remains in the sustained presence of glutamate (Cho et al. (2007). “Two families of TARP isoforms that have distinct effects on the kinetic properties of AMPA receptors and synaptic currents.” Neuron 55(6): 890-904).
An in vitro assay was used to determine the potency of test compounds as inhibitors of the glutamate response of the channel formed by GluA1o-γ8. To ensure a 1:1 stoichiometry of GluA1o and γ8 subunits in the expressed channel, a fusion of the cDNAs for GRIA1o and CACNG8 was used. Following Shi et al (2009) “The stoichiometry of AMPA receptors and TARPs varies by neuronal cell type.” Neuron 62(5): 633-640), the C-terminus of the cDNA for GRIA1o was fused to the N-terminus of the cDNA for γ8. The linker sequence was QQQQQQQQQQEFAT. Channels expressed with this construct appear to have similar properties to channels formed by co-expression of GRIA1o with an excess of CACNG8 (Shi et al. 2009). A clonal cell line in HEK293 cells stably expressing this construct, with a geneticin selection marker, was generated for use in this assay.
Cell expressing the GRIA1o-CACNG8 fusion construct were grown in a monolayer in 96- or 384-well microtiter plates. They were washed with assay buffer (135 mM NaCl, 4 mM KCl, 3 mM CaCl2, 1 mM MgCl2, 5 mM glucose, 10 mM HEPES, pH 7.4, 300 mOs) using a Biotek EL405 plate washer. The cells were then loaded with a calcium-sensitive dye (Calcium-5 or Calcium-6, Molecular Devices) and the test compounds at a range of concentrations. Calcium flux following the addition of 15 μM glutamate was monitored using a Molecular Devices FLIPR Tetra.
The fluorescence in each well was normalized to the fluorescence of negative and positive control wells. The negative control wells had no added compounds, and the positive control wells had been incubated with 10 μM CP465022 (a non-subtype-selective AMPA receptor antagonist) (Lazzaro et al. (2002). “Functional characterization of CP-465,022, a selective, noncompetitive AMPA receptor antagonist.” Neuropharmacology 42(2): 143-153). The responses to glutamate as functions of the test compound concentrations were fitted to a four-parameter logistic function. The fitted parameter corresponding to the midpoint was taken to be the potency of inhibition of the compound. The data in Table 4 below illustrates the observed potency for the compounds described herein. pIC50 refers to the negative log of the IC50 in molar.

GluA1o-γ8, sequence (P42261 other isoform, or with tags, fused parts or gaps): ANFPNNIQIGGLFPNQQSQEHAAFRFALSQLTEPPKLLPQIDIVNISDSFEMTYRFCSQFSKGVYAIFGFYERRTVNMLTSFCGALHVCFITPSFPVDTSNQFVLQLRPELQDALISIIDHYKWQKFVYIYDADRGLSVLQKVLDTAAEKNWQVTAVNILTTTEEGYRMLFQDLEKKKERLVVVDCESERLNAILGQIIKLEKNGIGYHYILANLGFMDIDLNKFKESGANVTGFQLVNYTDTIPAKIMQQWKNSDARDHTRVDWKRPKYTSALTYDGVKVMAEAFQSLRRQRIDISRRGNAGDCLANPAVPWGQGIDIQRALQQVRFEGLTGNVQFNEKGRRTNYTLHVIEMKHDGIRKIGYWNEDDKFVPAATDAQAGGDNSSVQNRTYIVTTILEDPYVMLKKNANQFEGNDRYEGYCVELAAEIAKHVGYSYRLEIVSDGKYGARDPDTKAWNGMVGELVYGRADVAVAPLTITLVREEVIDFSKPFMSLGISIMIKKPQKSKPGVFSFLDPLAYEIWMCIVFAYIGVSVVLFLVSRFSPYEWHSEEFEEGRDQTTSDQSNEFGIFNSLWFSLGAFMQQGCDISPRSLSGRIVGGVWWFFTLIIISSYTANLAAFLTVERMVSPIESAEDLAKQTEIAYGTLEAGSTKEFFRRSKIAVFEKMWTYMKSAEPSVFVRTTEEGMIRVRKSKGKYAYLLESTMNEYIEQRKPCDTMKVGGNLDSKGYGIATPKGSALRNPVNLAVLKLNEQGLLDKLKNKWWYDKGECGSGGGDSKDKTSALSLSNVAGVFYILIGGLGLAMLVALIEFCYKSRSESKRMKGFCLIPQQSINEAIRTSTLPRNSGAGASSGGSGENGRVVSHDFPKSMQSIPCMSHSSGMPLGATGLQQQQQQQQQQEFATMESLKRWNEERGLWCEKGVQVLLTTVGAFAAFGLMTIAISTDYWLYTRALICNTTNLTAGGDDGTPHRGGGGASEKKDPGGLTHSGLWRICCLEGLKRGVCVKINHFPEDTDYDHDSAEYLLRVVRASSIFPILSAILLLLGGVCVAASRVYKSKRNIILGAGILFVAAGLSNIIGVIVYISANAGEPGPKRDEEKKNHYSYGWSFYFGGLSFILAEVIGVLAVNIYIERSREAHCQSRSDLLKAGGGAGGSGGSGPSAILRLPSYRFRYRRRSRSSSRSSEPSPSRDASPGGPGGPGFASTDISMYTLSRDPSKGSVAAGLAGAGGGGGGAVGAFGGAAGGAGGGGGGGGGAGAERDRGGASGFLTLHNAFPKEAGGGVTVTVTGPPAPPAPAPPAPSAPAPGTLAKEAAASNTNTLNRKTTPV

Row | pIC50 | IC50 [nM] | SMILES
1 | 9.5 | – | FC(F)c1nc2c(-c3cc(Cl)c4[nH]ncc4c3)c(C(F)(F)F)ccn2n1 [Example 1, 8-(7-Chloro-1H-indazol-5-yl)-2-(difluoromethyl)-7-(trifluoromethyl)-[1,2,4]triazolo[1,5-a]pyridine]
2 | 8.5 | – | Cc1cc(-c2c(Cl)ccn3nc(C(F)(F)F)nc23)cc2cn[nH]c12 [Example 2, 7-Chloro-8-(7-methyl-1H-indazol-5-yl)-2-(trifluoromethyl)-[1,2,4]triazolo[1,5-a]pyridine]
3 | 8.1 | – | O=c1[nH]c2ccc(-c3c(C(F)(F)F)ccn4nc(C(F)(F)F)nc34)cc2s1 [Example 3, 6-(2,7-Bis(trifluoromethyl)-[1,2,4]triazolo[1,5-a]pyridin-8-yl)benzo[d]thiazol-2(3H)-one]
4 | 10.6 | – | Cc1cc(-c2c(-c3ccc(F)cc3)ccn3nc(C4CCC4)nc23)cc2cn[nH]c12 [Example 4, 2-Cyclobutyl-7-(4-fluorophenyl)-8-(7-methyl-1H-indazol-5-yl)-[1,2,4]triazolo[1,5-a]pyridine]
5 | 9.6 | – | O=c1[nH]c2ccc(-c3c(-c4ccc(F)cc4)ccn4nc(C(F)(F)F)nc34)cc2s1 [Example 5, 6-(7-(4-Fluorophenyl)-2-(trifluoromethyl)-[1,2,4]triazolo[1,5-a]pyridin-8-yl)benzo[d]thiazol-2(3H)-one]
6 | 10.1 | – | Cc1cc(-c2c(C3CCCC3)ccn3nc(C(F)(F)F)nc23)cc2cn[nH]c12 [Example 6, 7-Cyclopentyl-8-(7-methyl-1H-indazol-5-yl)-2-(trifluoromethyl)-[1,2,4]triazolo[1,5-a]pyridine]
7 | 9.5 | – | Cc1cc(-c2c(N3CCC3)ccn3nc(C(F)(F)F)nc23)cc2cn[nH]c12 [Example 7, 7-(Azetidin-1-yl)-8-(7-methyl-1H-indazol-5-yl)-2-(trifluoromethyl)-[1,2,4]triazolo[1,5-a]pyridine]
8 | 8.6 | – | Cc1cc(-c2c(N3CC(F)C3)ccn3nc(C(F)(F)F)nc23)cc2cn[nH]c12 [Example 8, 7-(3-Fluoroazetidin-1-yl)-8-(7-methyl-1H-indazol-5-yl)-2-(trifluoromethyl)-[1,2,4]triazolo[1,5-a]pyridine]
9 | 10.8 | – | Cc1cc(-c2c(-c3ccc(F)cc3)ccn3nc(C4CCCC4)nc23)cc2cn[nH]c12 [Example 9, 2-Cyclopentyl-7-(4-fluorophenyl)-8-(7-methyl-1H-indazol-5-yl)-[1,2,4]triazolo[1,5-a]pyridine]
10 | 7.7 | – | Cc1cc(-c2c(C#N)ccn3nc(C(F)(F)F)nc23)cc2cn[nH]c12 [Example 10, 8-(7-Methyl-1H-indazol-5-yl)-2-(trifluoromethyl)-[1,2,4]triazolo[1,5-a]pyridine-7-carbonitrile]
11 | – | 1 | Cc1cc(-c2c(C)ccn3cc(C(F)(F)F)nc23)cc2c1NC(=O)C2 [Example 11, 7-Methyl-5-[7-methyl-2-(trifluoromethyl)imidazo[1,2-a]pyridin-8-yl]indolin-2-one]
12 | – | 3.16 | Fc1ccc(-c2ccn3cc(C(F)(F)F)nc3c2-c2ccc3[nH]ncc3c2)cc1 [Example 12, 5-(7-(4-Fluorophenyl)-2-(trifluoromethyl)imidazo[1,2-a]pyridin-8-yl)-1H-indazole]
13 | – | 0.316 | FC(F)(F)c1cn2cnc(C(F)(F)F)c(-c3cc(Cl)c4[nH]ncc4c3)c2n1 [Example 13, 8-(7-Chloro-1H-indazol-5-yl)-2,7-bis(trifluoromethyl)imidazo[1,2-c]pyrimidine]
14 | – | 0.398 | FC(F)c1cn2cnc(C(F)(F)F)c(-c3cc(Cl)c4[nH]ncc4c3)c2n1 [Example 14, 8-(7-Chloro-1H-indazol-5-yl)-2-(difluoromethyl)-7-(trifluoromethyl)imidazo[1,2-c]pyrimidine]
15 | – | 2 | Cc1cc(-c2c(C(F)(F)F)ncn3cc(C(F)F)nc23)cc2cn[nH]c12 [Example 15, 2-(Difluoromethyl)-8-(7-methyl-1H-indazol-5-yl)-7-(trifluoromethyl)imidazo[1,2-c]pyrimidine]
16 | 9.0 | – | Cc1cc(-c2c(C(F)(F)F)ccn3nc(C(F)F)nc23)cc2cn[nH]c12 [Example 16, 8-(7-Methyl-1H-indazol-5-yl)-2-(difluoromethyl)-7-(trifluoromethyl)-[1,2,4]triazolo[1,5-a]pyridine]
17 | 8.9 | – | O=C1Cc2cc(-c3c(C(F)(F)F)ccn4nc(C(F)F)nc34)cc(Cl)c2N1 [Example 17, 7-Chloro-5-(2-(difluoromethyl)-7-(trifluoromethyl)-[1,2,4]triazolo[1,5-a]pyridin-8-yl)indolin-2-one]
18 | 8.6 | – | Cc1cc(-c2c(C(F)(F)F)ccn3nc(C(F)F)nc23)cc2c1NC(=O)C2 [Example 18, 7-Methyl-5-(2-(difluoromethyl)-7-(trifluoromethyl)-[1,2,4]triazolo[1,5-a]pyridin-8-yl)indolin-2-one]
19 | 9.6 | – | FC(F)(F)c1nc2c(-c3cc(Cl)c4[nH]ncc4c3)c(C(F)(F)F)ccn2n1 [Example 19, 8-(7-Chloro-1H-indazol-5-yl)-2,7-bis(trifluoromethyl)-[1,2,4]triazolo[1,5-a]pyridine]
20 | 9.3 | – | Cc1cc(-c2c(C(F)(F)F)ccn3nc(C(F)(F)F)nc23)cc2cn[nH]c12 [Example 20, 8-(7-Methyl-1H-indazol-5-yl)-2,7-bis(trifluoromethyl)-[1,2,4]triazolo[1,5-a]pyridine]
21 | 9.5 | – | O=C1Cc2cc(-c3c(C(F)(F)F)ccn4nc(C(F)(F)F)nc34)cc(Cl)c2N1 [Example 21, 5-(2,7-Bis(trifluoromethyl)-[1,2,4]triazolo[1,5-a]pyridin-8-yl)-7-chloroindolin-2-one]
22 | 9.1 | – | Cc1cc(-c2c(C(F)(F)F)ccn3nc(C(F)(F)F)nc23)cc2c1NC(=O)C2 [Example 22, 5-(2,7-Bis(trifluoromethyl)-[1,2,4]triazolo[1,5-a]pyridin-8-yl)-7-methylindolin-2-one]
23 | 9.4 | – | FC(F)c1ccn2nc(C(F)(F)F)nc2c1-c1cc(Cl)c2[nH]ncc2c1 [Example 23, 8-(7-Chloro-1H-indazol-5-yl)-7-(difluoromethyl)-2-(trifluoromethyl)-[1,2,4]triazolo[1,5-a]pyridine]
24 | 9.2 | – | Cc1cc(-c2c(C(F)F)ccn3nc(C(F)(F)F)nc23)cc2cn[nH]c12 [Example 24, 8-(7-Methyl-1H-indazol-5-yl)-7-(difluoromethyl)-2-(trifluoromethyl)-[1,2,4]triazolo[1,5-a]pyridine]
25 | 9.2 | – | O=C1Cc2cc(-c3c(C(F)F)ccn4nc(C(F)(F)F)nc34)cc(Cl)c2N1 [Example 25, 7-Chloro-5-(7-(difluoromethyl)-2-(trifluoromethyl)-[1,2,4]triazolo[1,5-a]pyridin-8-yl)indolin-2-one]
26 | 9.0 | – | Cc1cc(-c2c(C(F)F)ccn3nc(C(F)(F)F)nc23)cc2c1NC(=O)C2 [Example 26, 7-Methyl-5-(7-(difluoromethyl)-2-(trifluoromethyl)-[1,2,4]triazolo[1,5-a]pyridin-8-yl)indolin-2-one]
27 | 8.4 | – | Cc1ccn2nc(C(F)(F)F)nc2c1-c1cc(C)c2[nH]ncc2c1 [Example 27, 7-Methyl-8-(7-methyl-1H-indazol-5-yl)-2-(trifluoromethyl)-[1,2,4]triazolo[1,5-a]pyridine]
28 | 9.1 | – | CCc1ccn2nc(C(F)(F)F)nc2c1-c1cc(C)c2[nH]ncc2c1 [Example 28, 7-Ethyl-8-(7-methyl-1H-indazol-5-yl)-2-(trifluoromethyl)-[1,2,4]triazolo[1,5-a]pyridine]
29 | 7.6 | – | COc1ccn2nc(C(F)(F)F)nc2c1-c1cc(C)c2[nH]ncc2c1 [Example 29, 7-Methoxy-8-(7-methyl-1H-indazol-5-yl)-2-(trifluoromethyl)-[1,2,4]triazolo[1,5-a]pyridine]
30 | 9.8 | – | FC(F)(F)c1ccn2nc(C3CC3)nc2c1-c1cc(Cl)c2[nH]ncc2c1 [Example 30, 8-(7-Chloro-1H-indazol-5-yl)-2-cyclopropyl-7-(trifluoromethyl)-[1,2,4]triazolo[1,5-a]pyridine]
